Results: US4978673A, “Organic salts of physostigmine derivatives” (priority 1987, dated 1990)
Converted amounts (≈) assume the structure as drawn.

What was measured:
[1] = toxicity in the rat (LD50, oral); settings: in vivo
in vivo = settings: rat, po
water solubility = type: physicochemical

CCCCCCCCCNC(=O)Oc1ccc2c(c1)C1(C)CCN(C)C1N2C (centres unmarked) [***]
LD50 [1]: 50 mg/kg

CCCCNC(=O)Oc1ccc2c(c1)C1(C)CCN(C)C1N2C (centres unmarked) [**]
LD50 [1]: 6 mg/kg

CCCCCCCNC(=O)Oc1ccc2c(c1)C1(C)CCN(C)C1N2C (centres unmarked) [*]
LD50 (in vivo): 20 mg/kg

CCCCCCCNC(=O)Oc1ccc2c(c1)C1(C)CCN(C)C1N2C (centres unmarked) [Example 1]
solubility (water solubility; water): 700 mg/mL (≈ 1950 mM)

CCCCCCCNC(=O)Oc1ccc2c(c1)C1(C)CCN(C)C1N2C (centres unmarked) [corresponding non-salified derivative]
water solubility (in words) (water solubility; non-salified derivative): insoluble
